Assay results reported in paper PMC8402619 (Viruses, 2021).

How the values were obtained:
Type in all cases: in vitro ADME
[1] = molecular target: T1, OAT3 (Homo sapiens, UniProt Q8TCC7); assay: Inhibition of transporter-mediated probe uptake in MDCKII-OAT3 cells
T1 construct: expressed in transfected cells; host or cells: MDCKII
T1 sequence (Q8TCC7 1-542): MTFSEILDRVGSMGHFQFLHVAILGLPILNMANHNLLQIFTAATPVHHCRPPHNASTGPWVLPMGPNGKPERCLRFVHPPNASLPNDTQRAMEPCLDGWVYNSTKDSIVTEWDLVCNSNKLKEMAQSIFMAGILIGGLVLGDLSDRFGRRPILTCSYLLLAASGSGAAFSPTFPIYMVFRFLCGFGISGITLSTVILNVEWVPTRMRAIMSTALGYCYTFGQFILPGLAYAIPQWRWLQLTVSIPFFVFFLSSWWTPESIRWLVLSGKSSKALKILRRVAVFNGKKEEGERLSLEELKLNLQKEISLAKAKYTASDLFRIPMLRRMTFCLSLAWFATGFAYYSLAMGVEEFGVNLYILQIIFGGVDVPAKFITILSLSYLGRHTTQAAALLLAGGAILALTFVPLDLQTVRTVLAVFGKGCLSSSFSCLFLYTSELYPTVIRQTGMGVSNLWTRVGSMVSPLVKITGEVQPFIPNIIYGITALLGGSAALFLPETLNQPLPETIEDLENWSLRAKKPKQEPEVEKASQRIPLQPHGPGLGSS

[2] = molecular target: T2, CYP1A2 (Homo sapiens, UniProt P05177); assay: Reversible CYP inhibition in pooled human liver microsomes
T2 sequence (P05177 1-516): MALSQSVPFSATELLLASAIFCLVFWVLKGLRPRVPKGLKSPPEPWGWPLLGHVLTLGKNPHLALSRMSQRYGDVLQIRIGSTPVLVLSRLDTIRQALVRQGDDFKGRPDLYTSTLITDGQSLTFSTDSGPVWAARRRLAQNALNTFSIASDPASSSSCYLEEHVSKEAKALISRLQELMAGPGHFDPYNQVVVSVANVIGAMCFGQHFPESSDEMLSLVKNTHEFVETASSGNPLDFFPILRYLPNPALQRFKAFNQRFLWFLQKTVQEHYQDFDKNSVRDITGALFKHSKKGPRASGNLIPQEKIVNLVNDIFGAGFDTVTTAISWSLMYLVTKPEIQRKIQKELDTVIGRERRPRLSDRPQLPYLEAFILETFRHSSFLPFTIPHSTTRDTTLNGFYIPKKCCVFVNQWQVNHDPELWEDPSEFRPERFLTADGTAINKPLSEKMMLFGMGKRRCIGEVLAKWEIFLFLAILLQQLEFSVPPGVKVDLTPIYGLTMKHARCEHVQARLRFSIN

[3] = molecular target: CYP2C9 (Homo sapiens, UniProt P11712); assay: as above
[4] = Metabolism in cryopreserved human hepatocyte incubations
[5] = molecular target: T3, OATP1B3 (Homo sapiens, UniProt Q9NPD5); assay: Inhibition of transporter-mediated probe uptake in HEK293-OATP1B3 cells
T3 construct: host or cells: HEK293
T3 sequence (Q9NPD5 1-702): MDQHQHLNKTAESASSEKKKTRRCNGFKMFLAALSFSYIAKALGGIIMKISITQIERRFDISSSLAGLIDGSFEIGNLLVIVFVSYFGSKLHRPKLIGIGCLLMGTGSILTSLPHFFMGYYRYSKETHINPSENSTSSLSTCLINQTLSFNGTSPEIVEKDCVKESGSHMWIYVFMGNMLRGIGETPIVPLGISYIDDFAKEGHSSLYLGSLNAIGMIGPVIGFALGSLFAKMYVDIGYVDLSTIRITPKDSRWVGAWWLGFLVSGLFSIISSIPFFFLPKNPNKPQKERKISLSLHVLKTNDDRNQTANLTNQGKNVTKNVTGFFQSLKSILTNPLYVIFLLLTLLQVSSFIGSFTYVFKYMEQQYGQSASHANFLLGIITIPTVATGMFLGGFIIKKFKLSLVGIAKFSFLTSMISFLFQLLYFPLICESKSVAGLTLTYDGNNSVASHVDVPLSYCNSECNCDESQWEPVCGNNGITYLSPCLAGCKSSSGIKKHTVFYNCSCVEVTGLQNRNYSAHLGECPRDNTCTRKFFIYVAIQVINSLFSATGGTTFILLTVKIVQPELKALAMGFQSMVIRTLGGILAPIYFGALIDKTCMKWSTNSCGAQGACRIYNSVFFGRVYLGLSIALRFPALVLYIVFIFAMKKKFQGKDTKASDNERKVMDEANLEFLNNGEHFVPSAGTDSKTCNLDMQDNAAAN

[6] = Plasma protein binding by equilibrium dialysis, mouse plasma; settings: pH 7.4
[7] = molecular target: CYP2D6 (Homo sapiens, UniProt P10635); assay: Reversible CYP inhibition in pooled human liver microsomes
[8] = molecular target: CYP3A4 (Homo sapiens, UniProt P08684); assay: as above
Chain of CYP3A4 (P08684 whole entry): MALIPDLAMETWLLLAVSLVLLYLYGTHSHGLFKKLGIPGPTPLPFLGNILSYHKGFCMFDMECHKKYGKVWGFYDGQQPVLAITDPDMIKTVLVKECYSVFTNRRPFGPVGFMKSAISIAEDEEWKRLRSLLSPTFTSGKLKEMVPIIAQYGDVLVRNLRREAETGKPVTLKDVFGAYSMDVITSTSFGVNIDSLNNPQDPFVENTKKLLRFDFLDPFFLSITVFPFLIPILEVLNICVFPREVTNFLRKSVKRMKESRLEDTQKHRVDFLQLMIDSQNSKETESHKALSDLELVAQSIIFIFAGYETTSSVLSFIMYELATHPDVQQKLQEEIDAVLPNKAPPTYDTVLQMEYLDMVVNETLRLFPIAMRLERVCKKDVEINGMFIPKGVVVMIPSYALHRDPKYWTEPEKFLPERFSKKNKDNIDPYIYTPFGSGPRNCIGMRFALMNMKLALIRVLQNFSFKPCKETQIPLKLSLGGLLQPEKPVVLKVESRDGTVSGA

Chain of CYP2D6 (P10635 whole entry): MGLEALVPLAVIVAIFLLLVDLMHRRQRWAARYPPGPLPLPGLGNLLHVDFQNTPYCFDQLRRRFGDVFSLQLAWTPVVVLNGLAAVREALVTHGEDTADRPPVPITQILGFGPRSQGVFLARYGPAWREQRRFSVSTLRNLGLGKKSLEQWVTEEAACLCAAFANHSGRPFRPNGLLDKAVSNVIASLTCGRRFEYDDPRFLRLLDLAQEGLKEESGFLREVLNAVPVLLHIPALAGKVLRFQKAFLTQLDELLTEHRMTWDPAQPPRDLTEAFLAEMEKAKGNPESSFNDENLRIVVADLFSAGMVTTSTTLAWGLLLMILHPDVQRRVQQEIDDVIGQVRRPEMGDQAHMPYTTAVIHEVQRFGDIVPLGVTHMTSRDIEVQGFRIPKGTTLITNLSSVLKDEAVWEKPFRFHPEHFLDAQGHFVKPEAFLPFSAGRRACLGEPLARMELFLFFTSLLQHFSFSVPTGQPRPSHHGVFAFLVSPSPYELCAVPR
Chain of CYP2C9 (P11712 whole entry): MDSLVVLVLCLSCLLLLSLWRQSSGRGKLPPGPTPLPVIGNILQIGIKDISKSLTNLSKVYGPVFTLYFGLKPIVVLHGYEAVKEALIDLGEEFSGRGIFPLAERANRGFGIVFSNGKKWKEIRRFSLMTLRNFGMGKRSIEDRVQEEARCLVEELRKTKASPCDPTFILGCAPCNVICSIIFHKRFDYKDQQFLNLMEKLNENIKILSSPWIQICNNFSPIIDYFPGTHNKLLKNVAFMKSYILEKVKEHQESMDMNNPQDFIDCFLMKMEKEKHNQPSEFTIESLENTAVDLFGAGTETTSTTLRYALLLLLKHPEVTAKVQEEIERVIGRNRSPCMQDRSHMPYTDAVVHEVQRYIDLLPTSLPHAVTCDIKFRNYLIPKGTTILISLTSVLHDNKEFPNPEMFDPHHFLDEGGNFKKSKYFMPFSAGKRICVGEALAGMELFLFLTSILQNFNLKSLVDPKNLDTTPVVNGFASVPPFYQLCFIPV

For `C#C[C@]1(CO)O[C@@H](n2cnc3c(N)nc(F)nc32)C[C@@H]1O` [Islatravir, 4′-Ethynyl-2-fluoro-2′-deoxyadenosine], which inhibition at 100 µM ([1]; MDCKII-OAT3 cells, probe estrone sulfate, 100 µM islatravir) is on record?
The inhibition at 100 µM was 31%.

And the IC50 ([1]; OAT3-mediated estrone sulfate uptake, read-out: Islatravir IC50)?
The IC50 was greater than 100 µM.

And the “Maximum Unbound Plasma Concentration (Imax,u) to IC50 Ratio” value ([1]; OAT3, 60 mg, Cmax 1.01 µM, fu,p 0.96)?
The value was less than 0.010 µM.

And the “DDI Potential” value ([1]; OAT3 inhibition, FDA, EMA, PMDA guidance)?
Its value is “Low risk”.

What about the “DDI Potential” value ([2]; CYP1A2 reversible inhibition, FDA, EMA, PMDA guidance) of the same molecule?
Its value is “Low risk”.

And the “Maximum Unbound Plasma Concentration (Imax,u) to Ki,u Ratio” value ([2]; CYP1A2 reversible, 60 mg, Cmax 1.01 µM, fu,p 0.96, Ki,u = IC50/2)?
The value was less than 0.019 µM.

What about the IC50 ([2]; reversible, CYP1A2 phenacetin O-deethylation, read-out: Islatravir IC50) of the same molecule?
The IC50 was greater than 100 µM.

What about the “DDI Potential” value ([3]; CYP2C9 reversible inhibition, FDA, EMA, PMDA guidance) of the same molecule?
The value was “Low risk”.

What about the “Maximum Unbound Plasma Concentration (Imax,u) to Ki,u Ratio” value ([3]; CYP2C9 reversible, 60 mg, Cmax 1.01 µM, fu,p 0.96, Ki,u = IC50/2) of the same molecule?
Its value is less than 0.019 µM.

What about the IC50 ([3]; reversible, CYP2C9 diclofenac 4′-hydroxylation, read-out: Islatravir IC50) of the same molecule?
The IC50 was greater than 100 µM.

And the metabolites observed [4]?
Its metabolites observed is “no detectable metabolites”.

And the IC50 ([5]; OATP1B3-mediated uptake of sulfobromophthalein, read-out: Islatravir IC50)?
The IC50 was greater than 300 µM.

What about the “Maximum Unbound Inlet Concentration (Iin,max,u) to IC50 Ratio” value ([5]; OATP1B3, 60 mg dose) of the same molecule?
The value was less than 0.035.

And the “DDI Potential” value ([5]; OATP1B3 inhibition, FDA, EMA, PMDA guidance)?
The value was “Low risk”.

What about the fraction unbound at 24 h, 0.1 µM [6] of the same molecule?
The fraction unbound at 24 h, 0.1 µM was greater than 0.84.

And the “DDI Potential” value ([7]; CYP2D6 reversible inhibition, FDA, EMA, PMDA guidance)?
Its value is “Low risk”.

And the “Maximum Unbound Plasma Concentration (Imax,u) to Ki,u Ratio” value ([7]; CYP2D6 reversible, 60 mg, Cmax 1.01 µM, fu,p 0.96, Ki,u = IC50/2)?
The value was less than 0.019 µM.

What about the IC50 ([7]; reversible, CYP2D6 dextromethorphan O-demethylation, read-out: Islatravir IC50) of the same molecule?
Its IC50 is greater than 100 µM.

What about the “DDI Potential” value ([8]; CYP3A4 reversible inhibition, FDA, EMA, PMDA guidance) of the same molecule?
The value was “Low risk”.

And the “Maximum Unbound Plasma Concentration (Imax,u) to Ki,u Ratio” value ([8]; CYP3A4 reversible, 60 mg, Cmax 1.01 µM, fu,p 0.96, Ki,u = IC50/2)?
Its value is less than 0.010 µM.

And the “Intestinal Concentration (Igut) to Ki,u Ratio” value ([8]; CYP3A4 reversible, Igut = 60 mg/250 mL = 818 µM)?
The value was less than 8.2 µM.
